Assay results published in patent publication US9708314B2, “Heterocyclic amide compound” (NISSAN CHEMICAL INDUSTRIES, LTD., priority 2013, dated 2017).

Assays:
Assay type in all cases: in vivo
Cyperus difformis = experiment: Test Example 3: herbicidal effect by application to foliage (Wagner pot, water depth 0.1-0.5 cm); details: Nineteenth Table; application to foliage; application herbicide amount 320 g/ha
How it was run: (§1)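 Seeds were sown in alluvial soil in Wagner pots, grown for 14 days at 25–30 °C, then sprayed uniformly on foliage with the emulsified compound diluted to a given rate per hectare. Injury was graded three weeks after treatment from 0 (≤5%) to 5 (≥90%).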

[1] = system: Echinochloa crus-galli var. crus-galli; experiment: as above; details: Nineteenth Table; application to foliage; application herbicide amount 320 g/ha
How it was run: as §1

Leptochloa chinensis = experiment: as above; details: Nineteenth Table; application to foliage; application herbicide amount 320 g/ha
How it was run: as §1

Abutilon theophrasti = experiment: Test Example 4: herbicidal effect by application to foliage (diluvial soil, plastic box); details: Application herbicide amount 320 g/ha; foliage application
How it was run: (§2)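 Seeds sown in sterilized diluvial soil, covered ~1.5 cm, grown 14 days in greenhouse at 25° C. to 30° C. Emulsion formulation diluted in water to set rate (g/ha) and sprayed onto stems and leaves. Effect scored visually 3 weeks later on 0–5 scale (5 = ≥90% herbicidal ratio, 0 = ≤5%).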

Lolium multiflorum Lam. = experiment: as above; details: Application herbicide amount 320 g/ha; foliage application
How it was run: as §2

Digitaria ciliaris = experiment: as above; details: Application herbicide amount 320 g/ha; foliage application
How it was run: as §2

Avena fatua = experiment: as above; details: Application herbicide amount 320 g/ha; foliage application
How it was run: as §2

Alopecurus myosuroides = experiment: as above; details: Application herbicide amount 320 g/ha; foliage application
How it was run: as §2

Galium spurium = experiment: as above; details: Application herbicide amount 320 g/ha; foliage application
How it was run: as §2

Apera spica-venti. = experiment: as above; details: Application herbicide amount 320 g/ha; foliage application
How it was run: as §2

Setaria viridis = experiment: as above; details: Application herbicide amount 320 g/ha; foliage application
How it was run: as §2

Veronica persica = experiment: as above; details: Application herbicide amount 320 g/ha; foliage application
How it was run: as §2

[2] = system: Echinochloa crus-galli var. crus-galli; experiment: as above; details: Application herbicide amount 320 g/ha; foliage application
How it was run: as §2

Amaranthus retroflexus = experiment: as above; details: Application herbicide amount 320 g/ha; foliage application
How it was run: as §2

Chenopodium album = experiment: as above; details: Application herbicide amount 320 g/ha; foliage application
How it was run: as §2

Stellaria media = experiment: as above; details: Application herbicide amount 320 g/ha; foliage application
How it was run: as §2

Triticum aestivum = experiment: Test Example 4: effect on crop by application to foliage (diluvial soil, plastic box); details: Application herbicide amount 320 g/ha; foliage application
How it was run: as §2

Glycine max = experiment: as above; details: Application herbicide amount 320 g/ha; foliage application
How it was run: as §2

Zea mays = experiment: as above; details: Application herbicide amount 320 g/ha; foliage application
How it was run: as §2

[3] = system: directly sowed Oryza sativa; experiment: as above; details: Application herbicide amount 320 g/ha; foliage application
How it was run: as §2

[4] = system: Beta vulgaris ssp. vulgaris; experiment: as above; details: Application herbicide amount 320 g/ha; foliage application
How it was run: as §2

Brassica campestris L. = experiment: as above; details: Application herbicide amount 320 g/ha; foliage application
How it was run: as §2

Compound	E (herbicidal effect grade) (Cyperus difformis)	H (herbicidal effect grade) [1]	D (herbicidal effect grade) (Leptochloa chinensis)	M (Abutilon theophrasti) herbicidal effect grade (Abutilon theophrasti)	K (Lolium multiflorum Lam.) herbicidal effect grade (Lolium multiflorum Lam.)	F (Digitaria ciliaris) herbicidal effect grade (Digitaria ciliaris)	I (Avena fatua) herbicidal effect grade (Avena fatua)	J (Alopecurus myosuroides) herbicidal effect grade (Alopecurus myosuroides)	Q (Galium spurium) herbicidal effect grade (Galium spurium)	L (Apera spica-venti.) herbicidal effect grade (Apera spica-venti.)	G (Setaria viridis) herbicidal effect grade (Setaria viridis)	R (Veronica persica) herbicidal effect grade (Veronica persica)	H (Echinochloa crus-galli var. crus-galli) herbicidal effect grade [2]	N (Amaranthus retroflexus) herbicidal effect grade (Amaranthus retroflexus)	O (Chenopodium album) herbicidal effect grade (Chenopodium album)	P (Stellaria media) herbicidal effect grade (Stellaria media)	e (Triticum aestivum) effect on crop grade (Triticum aestivum)	d (Glycine max) effect on crop grade (Glycine max)	c (Zea mays) effect on crop grade (Zea mays)	b (directly sowed Oryza sativa) effect on crop grade [3]	further results
O=C(Nc1nnco1)c1ccc(C(F)(F)F)n2c(-c3ccc(F)cc3)nnc12 [1-147]	3 (Herbicidal ratio of 40% or more and less than 70%)	5 (Herbicidal ratio of 90% or more (almost completely withered))	5 (Herbicidal ratio of 90% or more (almost completely withered))	3 (Herbicidal ratio of 40% or more and less than 70%)	3 (Herbicidal ratio of 40% or more and less than 70%)	4 (Herbicidal ratio of 70% or more and less than 90%)	3 (Herbicidal ratio of 40% or more and less than 70%)	2 (Herbicidal ratio of 20% or more and less than 40%)	3 (Herbicidal ratio of 40% or more and less than 70%)	3 (Herbicidal ratio of 40% or more and less than 70%)	3 (Herbicidal ratio of 40% or more and less than 70%)	5 (Herbicidal ratio of 90% or more (almost completely withered))	4 (Herbicidal ratio of 70% or more and less than 90%)	4 (Herbicidal ratio of 70% or more and less than 90%)	5 (Herbicidal ratio of 90% or more (almost completely withered))	5 (Herbicidal ratio of 90% or more (almost completely withered))	3 (Herbicidal ratio of 40% or more and less than 70%)	3 (Herbicidal ratio of 40% or more and less than 70%)	0 (Herbicidal ratio of 5% or less (almost no effect))	0 (Herbicidal ratio of 5% or less (almost no effect))	f (Beta vulgaris ssp. vulgaris) effect on crop grade [4]: 5 (Herbicidal ratio of 90% or more (almost completely withered)); g (Brassica campestris L.) effect on crop grade (Brassica campestris L.): 5 (Herbicidal ratio of 90% or more (almost completely withered))
COc1cc(OC)cc(-c2nnc3c(C(=O)Nc4nnco4)ccc(C(F)(F)F)n23)c1 [1-148]	5 (Herbicidal ratio of 90% or more (almost completely withered))	5 (Herbicidal ratio of 90% or more (almost completely withered))	5 (Herbicidal ratio of 90% or more (almost completely withered))	3 (Herbicidal ratio of 40% or more and less than 70%)	3 (Herbicidal ratio of 40% or more and less than 70%)	4 (Herbicidal ratio of 70% or more and less than 90%)	1 (Herbicidal ratio of 5% or more and less than 20%)	1 (Herbicidal ratio of 5% or more and less than 20%)	4 (Herbicidal ratio of 70% or more and less than 90%)	2 (Herbicidal ratio of 20% or more and less than 40%)	3 (Herbicidal ratio of 40% or more and less than 70%)	5 (Herbicidal ratio of 90% or more (almost completely withered))	5 (Herbicidal ratio of 90% or more (almost completely withered))	5 (Herbicidal ratio of 90% or more (almost completely withered))	5 (Herbicidal ratio of 90% or more (almost completely withered))	5 (Herbicidal ratio of 90% or more (almost completely withered))	0 (Herbicidal ratio of 5% or less (almost no effect))	3 (Herbicidal ratio of 40% or more and less than 70%)	0 (Herbicidal ratio of 5% or less (almost no effect))	3 (Herbicidal ratio of 40% or more and less than 70%)	f (Beta vulgaris ssp. vulgaris) effect on crop grade [4]: 5 (Herbicidal ratio of 90% or more (almost completely withered)); g (Brassica campestris L.) effect on crop grade (Brassica campestris L.): 4 (Herbicidal ratio of 70% or more and less than 90%)
COc1ccc(-c2nnc3c(C(=O)Nc4nnco4)ccc(C(F)(F)F)n23)cc1 [1-149]	5 (Herbicidal ratio of 90% or more (almost completely withered))	5 (Herbicidal ratio of 90% or more (almost completely withered))	5 (Herbicidal ratio of 90% or more (almost completely withered))	3 (Herbicidal ratio of 40% or more and less than 70%)	1 (Herbicidal ratio of 5% or more and less than 20%)	4 (Herbicidal ratio of 70% or more and less than 90%)	1 (Herbicidal ratio of 5% or more and less than 20%)	1 (Herbicidal ratio of 5% or more and less than 20%)	3 (Herbicidal ratio of 40% or more and less than 70%)	2 (Herbicidal ratio of 20% or more and less than 40%)	3 (Herbicidal ratio of 40% or more and less than 70%)	5 (Herbicidal ratio of 90% or more (almost completely withered))	4 (Herbicidal ratio of 70% or more and less than 90%)	3 (Herbicidal ratio of 40% or more and less than 70%)	5 (Herbicidal ratio of 90% or more (almost completely withered))	5 (Herbicidal ratio of 90% or more (almost completely withered))	0 (Herbicidal ratio of 5% or less (almost no effect))	3 (Herbicidal ratio of 40% or more and less than 70%)	0 (Herbicidal ratio of 5% or less (almost no effect))	1 (Herbicidal ratio of 5% or more and less than 20%)	f (Beta vulgaris ssp. vulgaris) effect on crop grade [4]: 5 (Herbicidal ratio of 90% or more (almost completely withered)); g (Brassica campestris L.) effect on crop grade (Brassica campestris L.): 5 (Herbicidal ratio of 90% or more (almost completely withered))
O=C(Nc1nnco1)c1ccc(C(F)(F)F)n2c(-c3ccc(Cl)nc3)nnc12 [1-150]	5 (Herbicidal ratio of 90% or more (almost completely withered))	5 (Herbicidal ratio of 90% or more (almost completely withered))	5 (Herbicidal ratio of 90% or more (almost completely withered))	3 (Herbicidal ratio of 40% or more and less than 70%)	3 (Herbicidal ratio of 40% or more and less than 70%)	4 (Herbicidal ratio of 70% or more and less than 90%)	3 (Herbicidal ratio of 40% or more and less than 70%)	1 (Herbicidal ratio of 5% or more and less than 20%)	4 (Herbicidal ratio of 70% or more and less than 90%)	3 (Herbicidal ratio of 40% or more and less than 70%)	3 (Herbicidal ratio of 40% or more and less than 70%)	5 (Herbicidal ratio of 90% or more (almost completely withered))	5 (Herbicidal ratio of 90% or more (almost completely withered))	5 (Herbicidal ratio of 90% or more (almost completely withered))	5 (Herbicidal ratio of 90% or more (almost completely withered))	5 (Herbicidal ratio of 90% or more (almost completely withered))	3 (Herbicidal ratio of 40% or more and less than 70%)	4 (Herbicidal ratio of 70% or more and less than 90%)	0 (Herbicidal ratio of 5% or less (almost no effect))	3 (Herbicidal ratio of 40% or more and less than 70%)	f (Beta vulgaris ssp. vulgaris) effect on crop grade [4]: 5 (Herbicidal ratio of 90% or more (almost completely withered)); g (Brassica campestris L.) effect on crop grade (Brassica campestris L.): 5 (Herbicidal ratio of 90% or more (almost completely withered))
